Assay results reported in patent publication US10952999B2, “Inhibitor of cyclin-dependent kinase CDK9” (GENFLEET THERAPEUTICS (SHANGHAI) INC., priority 2017, dated 2021).

Assays:
CDK11(non-active) = biological target: T1, CDK11(non-active) (Homo sapiens, UniProt Q9BWU1); experiment: Enzyme assay for inhibition of CDK protein in vitro (Z-LYTE); format: biochemical
T1 construct: purchased Invitrogen, USA
Procedure: (§1) Compounds 1 and 14 diluted in DMSO were mixed with detected CDK protein (Invitrogen, USA) respectively, incubated at room temperature for 30 minutes; and then mixed with Kinase/Z-LYTE™ Peptide Substrate Mixture (Invitrogen, USA) and 4×ATP. The mixed system was transferred to a 384-well white opaque plate to react for 1 hour at room temperature; 5 μL of Development Solution (Invitrogen, USA) was added to react at room temperature for 1 hour, and finally Stop Reagent (Invitrogen, USA) was added to terminate the reaction and MD SpectraMax I3× microplate reader (Molecular Devices, USA) was used to read fluorescence values.

CDK16/cyclin Y = biological target: T2, CDK16/cyclin Y (Homo sapiens, UniProt Q00536); experiment: as above; format: biochemical
T2 construct: purchased Invitrogen, USA
Procedure: as §1

[1] = Body weight of mice in the MV4-11 mouse model; format: in vivo; details: orally per day, Bal b/c mice
Procedure: 24 Bal b/c female mice, 4-6 weeks, were purchased from Shanghai Slack Laboratory Animals Co., Ltd. and kept in SPF laboratory. The drinking water and padding were aseptically treated by autoclaving. All operations were carried out under aseptic conditions. On day 0, 5×10^6MV4-11 acute granulocyte leukemia cells (purchased from ATCC) were subcutaneously injected into the left side of all mice' back. Starting on day 15, all mice were divided into four groups (6 mice per group), methyl cellulose (HKI) solvent was orally administered to the first group of mice per day; compound 1 at a dose of 10 mg/kg mice body weight was orally administered to the second group of mice per day; compound 1 at a dose of 20 mg/kg mice body weight was orally administered to the third group of mice per day; compound 1 at a dose of 30 mg/kg mice body weight was orally administered to the fourth group of mice per day. From the start of administration, the length/width of the subcutaneous tumor was measured with a vernier caliper every day, and the body weight of the mouse was recorded every day, and the effect of compound 1 on the body weight of the mouse was observed. […] The trend of subcutaneous tumor growth was counted within day 16 to day 43, and the tumor volume was calculated as: length×width×width/2 mm^3.

[2] = tested on: acute promyelocytic leukemia cell line NB-4; experiment: Effect on cell cycle distribution, PI staining, flow cytometry; format: cell-based; details: NB-4, 0.01-0.1 μM, 12, 24 or 48 hours
Procedure: (§2) In order to study in which cycle the cells were prevented after administration, in the three cell lines, acute promyelocytic leukemia cell line NB-4, acute myelocytic leukemia cell line (AML) HL-60, and acute myelocytic leukemia cell line (AML) MV4-11, the effects of compound 1 on the cell cycle distribution of these cell lines were tested. […] The cell cycle distribution was measured by flow cytometry (BD FACS Calibur).

[3] = tested on: acute myelocytic leukemia cell line (AML) MV4-11; experiment: as above; format: cell-based; details: MV4-11, 0.01-0.1 μM, 12, 24 or 48 hours
Procedure: as §2

[4] = tested on: acute myelocytic leukemia cell line (AML) HL-60; experiment: as above; format: cell-based; details: HL-60, 0.01-0.1 μM, 12, 24 or 48 hours
Procedure: as §2

T1 sequence (Q9BWU1 whole entry): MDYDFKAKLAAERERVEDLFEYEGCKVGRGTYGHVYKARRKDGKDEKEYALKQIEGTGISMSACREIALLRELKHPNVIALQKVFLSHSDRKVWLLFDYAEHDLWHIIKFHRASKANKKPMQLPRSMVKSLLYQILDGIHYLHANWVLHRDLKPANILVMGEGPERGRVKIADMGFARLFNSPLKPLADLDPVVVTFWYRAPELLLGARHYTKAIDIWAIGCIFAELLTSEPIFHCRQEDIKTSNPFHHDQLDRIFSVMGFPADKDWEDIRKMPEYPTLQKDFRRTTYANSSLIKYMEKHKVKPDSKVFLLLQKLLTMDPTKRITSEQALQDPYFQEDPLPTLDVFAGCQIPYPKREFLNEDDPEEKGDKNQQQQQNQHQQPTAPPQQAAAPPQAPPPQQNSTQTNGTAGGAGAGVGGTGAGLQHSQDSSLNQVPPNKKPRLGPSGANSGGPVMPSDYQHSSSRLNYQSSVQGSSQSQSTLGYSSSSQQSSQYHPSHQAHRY
T2 sequence (Q00536 whole entry): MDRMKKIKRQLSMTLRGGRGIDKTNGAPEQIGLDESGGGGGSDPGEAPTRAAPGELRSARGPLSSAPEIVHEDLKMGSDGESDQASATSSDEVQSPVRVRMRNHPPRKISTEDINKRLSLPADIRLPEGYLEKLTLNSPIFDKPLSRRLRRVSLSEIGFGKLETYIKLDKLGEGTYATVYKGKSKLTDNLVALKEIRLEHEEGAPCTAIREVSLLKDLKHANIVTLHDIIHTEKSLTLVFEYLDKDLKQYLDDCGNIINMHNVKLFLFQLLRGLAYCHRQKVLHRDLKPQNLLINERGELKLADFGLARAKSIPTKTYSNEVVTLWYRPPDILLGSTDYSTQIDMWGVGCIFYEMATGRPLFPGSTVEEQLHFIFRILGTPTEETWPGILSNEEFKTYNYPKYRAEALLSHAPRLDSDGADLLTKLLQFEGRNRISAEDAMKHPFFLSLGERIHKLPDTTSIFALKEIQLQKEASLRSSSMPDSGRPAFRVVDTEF
T2 sequence (Q8ND76 whole entry partner): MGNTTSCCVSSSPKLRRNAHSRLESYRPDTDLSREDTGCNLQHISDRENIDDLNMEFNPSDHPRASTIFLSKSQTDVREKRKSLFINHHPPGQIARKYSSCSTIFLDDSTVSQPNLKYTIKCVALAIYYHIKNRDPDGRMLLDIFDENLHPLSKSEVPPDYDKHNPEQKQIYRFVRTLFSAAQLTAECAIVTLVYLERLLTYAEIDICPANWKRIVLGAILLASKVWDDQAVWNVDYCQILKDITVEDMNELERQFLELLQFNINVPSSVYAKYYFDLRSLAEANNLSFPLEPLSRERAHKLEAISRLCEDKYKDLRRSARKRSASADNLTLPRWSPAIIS

- IC50 (CDK11(non-active)): > 10000 nM
- IC50 (CDK16/cyclin Y): 195 nM
Structure (SMILES): COC[C@@H](C)N[C@H]1CC[C@H](Nc2cc(-c3csc(NCC4(C#N)CCOCC4)n3)c(Cl)cn2)CC1 [Compound 1, 4-(((4-(5-chloro-2-(((1R,4r)-4-(((R)-1-methoxypropyl-2-yl)amino)cyclohexyl)amino)pyridin-4-yl)thiazol-2-yl)amino)methyl)tetrahydro-2H-pyran-4-carbonitrile]
- effect on the body weight of mice ([1]; high dose group (20, 30 mg/kg)): affected the body weight
- effect on the body weight of mice ([1]; low dose group (10 mg/kg)): no significant effect
- effect on the cell cycle [2]: blocked the cells in G0-G1 phase
- effect on the cell cycle [3]: blocked the cells in G0-G1 phase
- effect on the cell cycle [4]: blocked the cells in G0-G1 phase
